# Data from patent US20260125374A1, “PI3K-ALPHA INHIBITORS AND METHODS OF MAKING AND USING THE SAME” (Relay Therapeutics, Inc., priority 2021, published 2026).
# Marks after values point to notes of the source that are not given here.
# Assays:
# Assay type in all cases: physicochemical
# [1] = Investigation of factors impacting racemization
# Text: Therefore, the factors impacting racemization were investigated including pH, temperature, molecular sieve and experimental duration. […] It is worth noted that racemization can be accelerated when solvents are pretreated by molecular sieve, since the pH value is shifted to basic after pretreatment.
# During DSC test for I-1 Form A, different heating rates result in different thermal events. To investigate whether racemization occurs during heating, I-1 Form A was heated to different temperatures then obtained solids were tested by SFC.
# [2] = Grinding simulation experiments
# Method: About 50 mg of I-1 Form A was ground manually with a mortar and pestle for 1, 3 and 5 min. Form transformation and degree of crystallinity was evaluated by XRPD.
# About 50 mg of Form A was ground manually with a mortar and pestle for 1, 3 and 5 min. Form transformation and degree of crystallinity was evaluated by XRPD.
# [3] = Stability of I-1 solution during concentration (pH, temperature; chiral purity); settings: for Purity / ee %: 1N HCl; for ee %: start ee 98.43%
# [4] = Behavior under compression
# Method: About 20 mg of I-1 Form A was compressed for 5 minutes at 2 MPa, 5 MPa and 10 MPa with a hydraulic press. XRPD characterization was performed to investigate the polymorphic behavior under compression.
# About 20 mg of Form A was compressed for 5 minutes at 2 MPa, 5 MPa and 10 MPa with a hydraulic press. XRPD characterization was performed to investigate the polymorphic behavior under compression.
# [5] = Light impact on chiral purity
# Method: Four reactions were carried out to study the impact of light on chiral purity under neutral and basic condition.
# [6] = Stability of I-1 solution during concentration (pH, temperature; chiral purity); settings: for ee % before concentration: starting value before stirring; for ee % of the product after stirring: from 98.20%
# Method: To study the chiral stability of product I-1 during concentration, three batches I-1 from Prep-HPLC was tried under different conditions: 1) The ee % of the product changes from 98.20% to 78.95% after stirring over 18 h at 45-50° C. with pH 6-7. 2) The ee % of the product changes from 98.20% to 97.64% after stirring over 18 h at 20-25° C. with pH 6-7. 3) The ee % of the product changes from 98.20% to 98.15% after stirring over 18 h at 45-50° C. with pH 5-6.
# Two reactions at 0.5 g I-1 (after SFC preparation) were carried out for stability study. 1) Compound is stable after stirring over 20 h at 10-20° C. with pH 4. 2) The ee % of this compound change from 98.43% to 98.16% after stirring over 20 h at 40-50° C. with pH 4.
# [7] = Granulation simulation experiments
# Method: (§1) Ethanol (without pretreatment by molecular sieve) and pure water were added drop wise to about 20 mg of I-1 Form A separately until solid is wetted sufficiently. Manually grind the samples with a mortar and pestle for about 5 min. Samples were dried under ambient condition for 10 min. Form transformation and degree of crystallinity were evaluated by XRPD.
# as §1, with “of” for “of I-1”
# [8] = Investigation of I-3 Form A in different humidity (VH-XRPD, humidity chamber); settings: for form after humidity chamber (XRPD): 1 week
# Method: According to the DVS result of I-3 Form A, two hydrate forms (a mono-hydrate, and a bis-hydrate) may exist when relative humidity is above 50% RH. Variable humidity XRPD (VH-XRPD) was investigated attempting to capture the potential hydrate(s).
# To further evaluate form conversion of I-3 Form A, this salt was placed in different humidity (30% RH, 40% RH and 50% RH) chambers for 1 week.
# I-3 Form A was used as starting material. One RH cycle was applied at 25° C. XRPD analysis was carried out in each specific relative humidity. Cycle: 39% RH (initial)-10% RH (2h)-40% RH (2h)-50% RH (2h)-70% RH (2h). Meanwhile, I-3 Form A was exposed to 30% RH, 40% RH and 50% RH chamber for 1 week. Samples were analyzed by XRPD using air tight container.
# [9] = after heating to 260° C. at 2° C./min by DSC
# [10] = after heating to 300° C. at 2° C./min by DSC
# [11] = 10-20° C. MeOH, pH 4, stir for 4 h
compound,measurement,setting,value
"N#Cc1c(-c2cc(NC(=O)c3cc(F)cc(C(F)(F)F)c3)c3c(c2)C(=O)N[C@H]3c2cc(F)ccc2Cl)ccc2ncnn12 [Compound I-1, (R)-N-(3-(2-chloro-5-fluorophenyl)-6-(5-cyano-[1,2,4]triazolo[1,5-a]pyridin-6-yl)-1-oxoisoindolin-4-yl)-3-fluoro-5-(trifluoromethyl)benzamide]",ee %(SFC),"[1]; Batch #1 as received, SFC after preparation for 12 h",ee % (SFC): 97.7%#;
same,ee %(SFC),"[1]; Batch #1 as received, SFC immediately after preparation",ee % (SFC): 100.0%*
same,XRPD,[1]; [9],XRPD: low crystallinity
same,ee %(SFC),[1]; [9],ee % (SFC): 88.1%*
same,ee %(SFC),[1]; after heating to 270° C. at 2° C./min by DSC,ee % (SFC): 10.9%*
same,XRPD,[1]; [10],XRPD: amorphous form
same,ee %(SFC),[1]; [10],ee % (SFC): 2.2%*
same,"racemization during heating (DSC, solids tested by SFC)",[1]; certain high temperatures,racemization indeed occurred
same,racemization in different solvents,"[1]; sped up by basic pH, high temperature, longer time, exposure to light",racemization easily occurs
same,XRPD peak intensity after dry grinding,[2],slightly decreased
same,XRPD,[2]; Dry grinding for 1 min,"No form and crystallinity change,"
same,form change on grinding (XRPD),"[2]; mortar and pestle 1, 3 and 5 min",no form change
same,Purity,[3]; [11],99.53%
same,ee %,[3]; [11],98.33%
same,stability in solution,[3]; 10˜20° C. within 68 h,stable
same,ee %,"[3]; 40-50° C. MeOH, pH 4, stir for 4 h",98.38%
same,Purity,"[3]; 40-50° C. MeOH, pH 4, stir for 68 h",99.29%
same,XRPD peaks after compression,[4],slightly broader
same,form change under compression (XRPD),"[4]; 5 minutes at 2, 5 and 10 MPa",no form change
same,XRPD,[4]; compressed for 5 minutes at 2 Mpa,"No form change, but peaks became slightly broader"
same,XRPD,[4]; compressed for 5 minutes at 5 Mpa,"No form change, but peaks became slightly broader"
same,XRPD,[4]; compressed for 5 minutes at 10 Mpa,"No form change, but peaks became slightly broader"
same,ee %,"[5]; Avoid light, basic (KOAc), 1 h",97.91%
same,ee %,"[5]; Avoid light, basic (KOAc), 6 h",94.79%
same,ee %,"[5]; Avoid light, basic (KOAc), 24 h",80.92%
same,ee %,"[5]; Avoid light, basic (KOAc), 96 h",43.30%
same,ee %,"[5]; Avoid light, neutral, 0 h",98.96%
same,ee %,"[5]; Avoid light, neutral, 6 h",98.94%
same,ee %,"[5]; Avoid light, neutral, 24 h",98.96%
same,ee %,"[5]; Avoid light, neutral, 96 h",98.92%
same,ee %,"[5]; Under light, basic (KOAc), 6 h",94.35%
same,ee %,"[5]; Under light, basic (KOAc), 24 h",76.17%
same,ee %,"[5]; Under light, basic (KOAc), 96 h",30.84%
same,ee %,"[5]; Under light, neutral, 6 h",98.87%
same,ee %,"[5]; Under light, neutral, 24 h",97.15%
same,ee %,"[5]; Under light, neutral, 96 h",81.68%
same,ee % of product after stirring for 96 h,"[5]; base system, avoid-light condition",43.30%
same,ee % of product after stirring for 96 h,"[5]; base system, under-light condition",30.84%
same,ee % of product after stirring for 96 h,"[5]; neutral system, avoid-light condition",almost unchanged
same,ee % of product after stirring for 96 h,"[5]; neutral system, under-light condition",81.68%
same,Purity,"[6]; 10-20° C. MeOH, 1N HCl, pH 4, stir for 20 h",99.54%
same,ee %,"[6]; 10-20° C. MeOH, 1N HCl, pH 4, stir for 20 h, start ee 98.43%",98.39%
same,Purity,"[6]; 10-20° C. MeOH, 1N HCl, pH 4, stir for 68 h",99.53%
same,ee %,"[6]; 10-20° C. MeOH, 1N HCl, pH 4, stir for 68 h, start ee 98.43%",98.27%
same,ee %,"[6]; 20-25° C. MeOH, pH 6-7, stir for 18 h, start ee 98.20%",97.64%
same,Purity,"[6]; 40-50° C. MeOH, 1N HCl, pH 4, stir for 4 h",99.51%
same,Purity,"[6]; 40-50° C. MeOH, 1N HCl, pH 4, stir for 20 h",99.37%
same,ee %,"[6]; 40-50° C. MeOH, 1N HCl, pH 4, stir for 20 h, start ee 98.43%",98.16%
same,ee %,"[6]; 40-50° C. MeOH, 1N HCl, pH 4, stir for 68 h, start ee 98.43%",97.92%
same,purity and chiral purity change in solution,[6]; 40˜50° C. stirring for 68 h,slight degrade
same,ee %,"[6]; 45-50° C. MeOH, 1N HCl, pH 5-6, stir for 18 h, start ee 98.20%",98.15%
same,ee %,"[6]; 45-50° C. MeOH, pH 6-7, stir for 18 h, start ee 98.20%",78.95%
same,ee % before concentration,[6]; I-1 after SFC preparation,ee % 98.43%
same,ee % before concentration,[6]; I-1 from Prep-HPLC,ee % 98.20%
same,stability of compound I-1 solution,[6]; dependence on pH,stable when pH at 4˜5
same,ee % of the product after stirring,[6]; over 18 h at 20-25° C. with pH 6-7,97.64%
same,ee % of the product after stirring,[6]; over 18 h at 45-50° C. with pH 5-6,98.15%
same,ee % of the product after stirring,[6]; over 18 h at 45-50° C. with pH 6-7,78.95%
same,stability after stirring,[6]; over 20 h at 10-20° C. with pH 4,stable
same,ee % after stirring,"[6]; over 20 h at 40-50° C. with pH 4, from 98.43%",98.16%
same,form change on granulation simulation (XRPD),[7]; ethanol and water,no form change
same,XRPD,[7]; granulation simulation with Ethanol,No form and crystallinity change
same,XRPD,[7]; granulation simulation with water,No form and crystallinity change
N#Cc1c(-c2cc(NC(=O)c3cc(F)cc(C(F)(F)F)c3)c3c(c2)C(=O)N[C@H]3c2cc(F)ccc2Cl)ccc2ncnn12 [Compound I-3],form after humidity chamber (XRPD),[8]; 30% RH,additional peaks belongs to Form B
same,form after humidity chamber (XRPD),[8]; 40% RH and 50% RH,converted to I-3 Form B
same,I-3 Form B pattern in VH-XRPD,"[8]; 50% RH, 25° C.",started to show up
same,form by VH-XRPD,"[8]; 70% RH, 25° C.","fully converted to a new form, I-3 Form B"
same,XRPD,"[8]; Chamber, 25° C., 30% RH (1 week), air tight container for XRPD",I-3 Form A + 2Theta 17.5°
same,XRPD,"[8]; Chamber, 25° C., 40% RH (1 week), air tight container for XRPD",I-3 Form B
same,XRPD,"[8]; Chamber, 25° C., 50% RH (1 week), air tight container for XRPD",I-3 Form B
same,XRPD,"[8]; VH-XRPD, 25° C., 10% RH (2 h)",I-3 Form A
same,XRPD,"[8]; VH-XRPD, 25° C., 39% RH (initial)",I-3 Form A
same,XRPD,"[8]; VH-XRPD, 25° C., 40% RH (2 h)",I-3 Form A
same,XRPD,"[8]; VH-XRPD, 25° C., 50% RH (2 h)",I-3 Form A + 2Theta 17.3°
same,XRPD,"[8]; VH-XRPD, 25° C., 70% RH (2 h)",I-3 Form B
